“Also recorded” adds a separate entry of the source. Like-named read-outs stand apart in the source and are kept apart here.
Legend:
[1] = tested on: MDCK strain I cells; assay: Transcellular electrical resistance (TER) of filter-grown MDCK strain I cells; type: cell-based, canine
[2] = tested on: pp60^v−src transfected rat 3Y1 cells; settings: pp60v-src transfected rat 3Y1 fibroblast cell line; Matsuyoshi et al. 1992; cited from earlier work
[3] = tested on: bovine brain microvessel endothelial cells (BBECs); type: cell-based
[4] = tested on: MDCK cells; type: cell-based, canine
[5] = tested on: MDCK strain I cells; type: cell-based, canine
[6] = tested on: BBECs; type: cell-based, bovine
[7] = tested on: MDCK strain I cells; type: cell-based, canine; remark: listed apart in the source
[8] = tested on: BBECs; type: cell-based, bovine; remark: listed apart in the source
[9] = tested on: E-cadherin/catenin complex; type: cell-based, canine
[10] = tested on: ZO-1 and associated proteins; type: cell-based, canine
[11] = tested on: brain tissue from normal adult rat; assay: Phosphotyrosine (4G10) label of blood vessels in rat brain tissue exposed to pervanadate; settings: rat brain tissue exposed to pervanadate (FIG. 10F)
Method: In these experiments, brain sections were labelled with an antibody to phosphotyrosine (monoclonal antibody 4G10) and labelled with a polyclonal antibody to collagen type IV to outline blood vessels. In sham operated animals, 4G10 label was restricted to a few large, peripherally located, vessels with a pattern of staining consistent with tyrosine phosphorylation of proteins at the borders of cells lining the vessels. After 24 hours of MCA occlusion an increase in 4G10 label was seen associated with microvessels located at the edge of the severely damaged tissue (see FIG. 10). The increase in 4G10 label was restricted to vessels in the area of the lesion, but not every vessel was labelled. 4G10 distribution in the microvessels is similar to that seen when brain tissue from normal adult rat is exposed to pervanadate, a drug that elevates levels of phosphotyrosine by inhibiting the enzymes responsible for tyrosine dephosphorylation.
Sections were air-dried and permeablised with 95% ethanol at −95° C. for 30 minutes followed by acetone at room temperature for 1 minute. All of the antibody incubations and washes used PBS containing 5×10^−4 M sodium vanadate. […]

[12] = tested on: MDCK cells; settings: Volberg et al. 1992; cited from earlier work
[13] = tested on: bovine brain microvessel endothelial cells (BBECs); settings: BBECs as well as endothelial cells derived from human brain; previously shown (Rubin et al. 1991); cited from earlier work

In the case of `[O]=[V]([O-])([O-])[O-]` [vanadate], the “change in TER after addition of H2O2 to vanadate pretreated cells” value [1] is reported as “caused a rapid decrease in TER”, the “change in TER over a longer time period, vanadate alone” value [1] is reported as “caused a decrease in TER” and the “change in TER, vanadate alone” value [1] is reported as “did not cause a decrease in TER”. The “tyrosine phosphorylation of cadherin and β-catenin” value [2] was “induced the tyrosine phosphorylation of E- or P-cadherin and β-catenin”.
With pervanadate the “change in TER” value [1] was “elicited a decrease in TER”, the “reversibility of the induced decrease in TER by reducing agent if added early enough” value [1] was “partially reversed” and the “change in TER” value [3] was “caused a dose-dependent and rapid decrease in TER”. For the same compound, the “paracellular flux of sucrose” value [4] was “increase the paracellular flux of sucrose”, the anti-phosphotyrosine staining pattern [5] was “initially caused an increase in staining at the adherens junction at the intercellular borders” and the anti-phosphotyrosine staining pattern [6] was “initially caused an increase in staining at the adherens junction at the intercellular borders”. The “tyrosine phosphorylation of proteins in whole cell lysates” value [7] was “caused an increase in the tyrosine phosphorylation of many proteins”, the “tyrosine phosphorylation of proteins in whole cell lysates” value [8] was “caused an increase in the tyrosine phosphorylation of many proteins” and the “tyrosine phosphorylation of proteins in anti-E-cadherin immunoprecipitates” value [9] was “stimulates the tyrosine phosphorylation of several catenins as well as E-cadherin; also recorded: caused an increase in the tyrosine phosphorylation of several proteins”. For the same compound, the “tyrosine phosphorylation of α-catenin in α-catenin immunoprecipitates” value [9] was “could not be detected”, the “β-catenin content of phosphotyrosine immunoprecipitates” value [9] was “is increased; also recorded: rapidly increased” and the “tyrosine phosphorylation of ZO-1” value [10] was “also stimulated tyrosine phosphorylation of ZO-1; also recorded: clearly resulted in the tyrosine phosphorylation”. For the same compound, the “tyrosine phosphorylation of ZO-2” value [10] was “clearly resulted in the tyrosine phosphorylation”, the “phosphotyrosine label of blood vessels” value [11] was “induces detectable levels of phosphotyrosine in both large and small vessels; also recorded: induces increased phosphotyrosine in both small and large blood vessels” and the “effect on the tight junction, by immunostaining of ZO-1” value [12] was “had no effect on the tight junction”. The “tyrosine phosphorylation of proteins at the adherens junction” value [12] was “elicited tyrosine phosphorylation of proteins at the adherens junction”.
In the case of `O=C(O)CN(CC(=O)O)c1ccccc1OCCOc1ccccc1N(CC(=O)O)CC(=O)O` [BAPTA, bis- (O-aminophenoxy)-ethane-N,N,N′,N′-tetraacetic acid], the “change in TER” value ([1]; MDCK strain I cells, preformed pervanadate 0.01-0.1 mM (FIG. 1b), PAO 1-30 μM (FIG. 2a), BAPTA 2.5-3 mM) is reported as “decrease in TER”.
In the case of `Nc1ncnc2c1ncn2[C@@H]1O[C@@H]2COP(=O)(O)O[C@H]2[C@H]1O` [cyclic AMP], the “effect of cyclic AMP on TER” value [13] is given as “increases TER”.
In the case of `OCC(S)CS` (centres unmarked) [2,3-dimercaptopropanol], the “block of PAO-induced decrease in TER by reducing agent” value ([1]; MDCK cells preincubated 10 minutes with 200 μM β-mercaptoethanol or 100 μM 2,3-dimercaptopropanol, 10 μM PAO, TER 30 minutes later (FIG. 2b)) is reported as “blocked”, the “block of BAPTA-elicited decrease in TER” value ([1]; MDCK cells, 100 μM 2,3-dimercaptopropanol preincubation, 3 mM BAPTA (FIG. 2b)) is reported as “did not block” and the “reversal of PAO-stimulated catenin tyrosine phosphorylation” value [9] is reported as “is reversed; also recorded: reversed catenin tyrosine phosphorylation”.
With `OCCS` [β-mercapto-ethanol, β-mercaptoethanol] the “block of PAO-induced decrease in TER by reducing agent” value [1] was “not”.
With `CO[C@H]1[C@@H](OC)C[C@H](C)[C@@H](OC)C2=CC(=O)C=C(NC(=O)/C(C)=C/C=C\[C@H](OC)[C@@H](OC(N)=O)/C(C)=C/[C@@H]1C)C2=O` [herbimycin A] the “effect of herbimycin A alone on resistance” value [1] was “did not affect resistance”, the “effect of herbimycin A pretreatment on PAO-induced decrease in transcellular electrical resistance” value [1] was “attenuated the decrease in transcellular electrical resistance” and the “effect of herbimycin A on PAO-induced increase in protein tyrosine phosphorylation” value [7] was “attenuated the ability of PAO to increase protein tyrosine phosphorylation”.
